Here are results for 29 molecules from ChEMBL document CHEMBL3627615, “Discovery of the disubstituted oxazole analogues as a novel class anti-tuberculotic agents against MDR- and XDR-MTB” (Bioorg Med Chem Lett, 2015).

Converted amounts (≈) assume the structure as drawn.

Test [1] has as its system Mycobacterium tuberculosis. Briefly: Antimycobacterial activity against multidrug-resistant Mycobacterium tuberculosis FJ05120 after 3 to 4 weeks by microplate alamar blue assay. The class given is functional. (Resazurin is reduced to fluorescent resorufin, in cell work by metabolically active cells.)
Test [2] concerns Mycobacterium tuberculosis. In words: Antimycobacterial activity against extensively drug-resistant Mycobacterium tuberculosis FJ05195 after 3 to 4 weeks by microplate alamar blue assay. In kind it is functional.

Consider `O=C(c1ccc2c(c1)OCCO2)C1CCN(Cc2coc(-c3ccc(Br)cc3)n2)CC1`, for which the MIC90 in test [1] and in test [2] was 8 µg/mL (≈ 16.6 µM) in each case.

As to `COc1ccc(C(=O)C2CCN(Cc3coc(-c4ccc(F)cc4)n3)CC2)cc1`, the MIC90 in test [1] and in test [2] was 8 µg/mL (≈ 20.3 µM) in each case.

Turning to `O=C(c1ccc2c(c1)CCCC2)C1CCN(Cc2coc(-c3ccc(F)cc3)n2)CC1`, the MIC90 in test [1] and in test [2] was 4 µg/mL (≈ 9.56 µM) throughout.

With `O=C(c1ccc2c(c1)OCCO2)C1CCN(Cc2coc(-c3ccc(F)cc3)n2)CC1`, the MIC90 in test [1] and in test [2] was 8 µg/mL (≈ 18.9 µM) each time.

As for `Cc1ccc(C(=O)C2CCN(Cc3coc(-c4ccc(F)cc4)n3)CC2)cc1`, the MIC90 in test [1] is 16 µg/mL (≈ 42.3 µM); in test [2] it was 8 µg/mL (≈ 21.1 µM).

`CC(C)(C)c1ccc(-c2nc(CN3CCC(C(=O)c4ccc5c(c4)OCCO5)CC3)cs2)cc1`: the MIC90 in test [1] and in test [2] was above 128 µg/mL in each case.

Turning to `O=C(c1ccc2c(c1)OCCO2)C1CCN(Cc2coc(-c3ccc(C(F)(F)F)cc3)n2)CC1`, the MIC90 in test [1] and in test [2] was 64 µg/mL (≈ 135 µM) in each case.

`CC(C)(C)c1ccc(-c2nc(CN3CCC(C(=O)c4ccc5c(c4)CCCC5)CC3)co2)cc1`: the MIC90 in test [1] and in test [2] was 4 µg/mL (≈ 8.76 µM) each time.

`O=C(c1ccc2c(c1)OCCO2)C1CCN(Cc2coc(-c3cccc(F)c3)n2)CC1`: the MIC90 is 16 µg/mL (≈ 37.9 µM) in test [1] and 8 µg/mL (≈ 18.9 µM) in test [2].

Consider `O=C(c1ccc2c(c1)OCCO2)C1CCN(Cc2coc(-c3ccco3)n2)CC1`, for which the MIC90 in test [1] and in test [2] was 32 µg/mL (≈ 81.1 µM) throughout.

For the molecule `CC[C@@H](CO)NCCN[C@@H](CC)CO` [ETHAMBUTOL], the values for the MIC90 in test [1] and in test [2] were 1 µg/mL (≈ 4.89 µM) and 8 µg/mL (≈ 39.2 µM), respectively.

In the case of `O=C(c1ccc2c(c1)OCCO2)C1CCN(Cc2coc(-c3ccoc3)n2)CC1`, the results for the MIC90 in test [1] and in test [2] were 32 µg/mL (≈ 81.1 µM) and 64 µg/mL (≈ 162 µM), respectively.

On to `O=C(c1ccc2c(c1)OCCO2)C1CCN(Cc2cc(-c3ccc(F)cc3)on2)CC1`, for which the MIC90 in test [1] and in test [2] was above 128 µg/mL throughout.

Take `O=C(c1ccc2c(c1)OCCO2)C1CCN(Cc2coc(-c3ccccc3)n2)CC1`: the MIC90 in test [1] and in test [2] was 8 µg/mL (≈ 19.8 µM) each time.

Regarding `CO[C@H]1/C=C/O[C@@]2(C)Oc3c(C)c(O)c4c(O)c(c(/C=N/N5CCN(C)CC5)c(O)c4c3C2=O)NC(=O)/C(C)=C\C=C\[C@H](C)[C@H](O)[C@@H](C)[C@@H](O)[C@@H](C)[C@H](OC(C)=O)[C@@H]1C` [RIFAMPIN], the MIC90 in test [1] and in test [2] was above 256 µg/mL in each case.

For the molecule `O=C(c1ccc2c(c1)OCCO2)C1CCN(Cc2coc(-c3ccc(Cl)cc3)n2)CC1`, the MIC90 was 8 µg/mL (≈ 18.2 µM) in test [1] and 4 µg/mL (≈ 9.11 µM) in test [2].

Turning to `Cc1ccc(C(=O)C2CCN(Cc3coc(-c4ccc(F)cc4)n3)CC2)cc1C`, the MIC90 in test [1] and in test [2] was 8 µg/mL (≈ 20.4 µM) each time.

For the molecule `O=C(c1ccc(F)c(F)c1)C1CCN(Cc2coc(-c3ccc(F)cc3)n2)CC1`, the MIC90 in test [1] and in test [2] was 8 µg/mL (≈ 20 µM) throughout.

Turning to `COc1ccc(C(=O)C2CCN(Cc3coc(-c4ccc(F)cc4)n3)CC2)cc1OC`, the MIC90 in test [1] and in test [2] was 16 µg/mL (≈ 37.7 µM) in each case.

Take `Cc1ccc(-c2nc(CN3CCC(C(=O)c4ccc5c(c4)OCCO5)CC3)co2)cc1`: the MIC90 in test [1] and in test [2] was 64 µg/mL (≈ 153 µM) each time.

Turning to `CN[C@@H]1[C@H](O[C@H]2[C@H](O[C@H]3[C@H](O)[C@@H](O)[C@H](N=C(N)N)[C@@H](O)[C@@H]3N=C(N)N)O[C@@H](C)[C@]2(O)C=O)O[C@@H](CO)[C@H](O)[C@H]1O` [STREPTOMYCIN], the results for the MIC90 in test [1] and in test [2] were below 0.5 µg/mL and 64 µg/mL (≈ 110 µM), respectively.

Turning to `COc1ccc(-c2nc(CN3CCC(C(=O)c4ccc5c(c4)OCCO5)CC3)co2)cc1`, the results for the MIC90 in test [1] and in test [2] were 8 µg/mL (≈ 18.4 µM) and 4 µg/mL (≈ 9.21 µM), respectively.

With `NNC(=O)c1ccncc1` [ISONIAZID], the MIC90 in test [1] stood at 1 µg/mL (≈ 7.29 µM); in test [2], 4 µg/mL (≈ 29.2 µM).

For the molecule `O=C(c1ccc2c(c1)OCCO2)C1CCN(Cc2coc(-c3ccc(F)c(F)c3)n2)CC1`, the MIC90 in test [1] and in test [2] was 8 µg/mL (≈ 18.2 µM) throughout.

For the molecule `CC(C)(C)c1ccc(-c2nc(CN3CCC(C(=O)c4ccc5c(c4)OCCO5)CC3)co2)cc1`, the MIC90 in test [1] was 2 µg/mL (≈ 4.34 µM); in test [2] it was 1 µg/mL (≈ 2.17 µM).

As to `O=C(c1ccc2c(c1)OCCO2)C1CCN(Cc2coc(-c3cccnc3)n2)CC1`, the MIC90 in test [1] and in test [2] was 32 µg/mL (≈ 78.9 µM) throughout.

In the case of `O=C(c1ccc2c(c1)OCCO2)C1CCN(Cc2coc(-c3ccccc3F)n2)CC1`, the MIC90 in test [1] worked out at 16 µg/mL (≈ 37.9 µM); in test [2], 8 µg/mL (≈ 18.9 µM).

On to `O=C(c1ccccc1)C1CCN(Cc2coc(-c3ccc(F)cc3)n2)CC1`, for which the MIC90 in test [1] and in test [2] was 4 µg/mL (≈ 11 µM) throughout.

`O=C(c1ccc2c(c1)OCCO2)C1CCN(Cc2csc(-c3ccc(Cl)cc3)n2)CC1`: the MIC90 in test [1] and in test [2] was above 128 µg/mL in each case.

Broadly, the MIC90 is an inhibitory concentration at the 90% level, which refers to growth in some studies and to a panel of isolates in others.
